The supplement of paper PMC10307832

Tests used:
Test in all cases: relative viability (nuclei count vs DMSO), 5 days (fraction); higher = more cells survive
[1] = compound: Nc1ncn([C@H]2C[C@H](O)[C@@H](CO)O2)c(=O)n1 [Decitabine] + CC1(C)CCC(c2ccc(Cl)cc2)=C(CN2CCN(c3ccc(C(=O)NS(=O)(=O)c4ccc(N[C@H](CCN5CCOCC5)CSc5ccccc5)c(S(=O)(=O)C(F)(F)F)c4)cc3)CC2)C1 [Navitoclax] (partner 0.5 µM)
How it was run: (§1)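 Lung cancer cell lines were seeded in 1536-well plates and dosed by pin tool the next day, with either a single drug or a fixed anchor-drug dose combined with five library-drug doses (not always all listed) spaced in √10 steps. Five days later, one step fixed the cells and stained their nuclei (final 0.05% Triton X-100, 1% formaldehyde, 1 ug/ml Hoechst), and nuclei were counted on 4× images. Relative viability is the nuclei count in treated wells divided by the count in vehicle wells, and each value is the median of duplicate plates.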

[2] = compound: Nc1ncn([C@H]2C[C@H](O)[C@@H](CO)O2)c(=O)n1 [Decitabine] + CS(=O)(=O)N1CCN(Cc2cc3nc(-c4cccc5[nH]ncc45)nc(N4CCOCC4)c3s2)CC1 [Pictilisib] (partner 1 µM)
How it was run: as §1

[3] = compound: Nc1ncn([C@H]2C[C@H](O)[C@@H](CO)O2)c(=O)n1 [Decitabine] + COc1cccc2cc(-c3nc([C@H]4CC[C@H](C(=O)O)CC4)n4ncnc(N)c34)[nH]c12 [OSI-027] (partner 0.5 µM)
How it was run: as §1

Cell Line | relative viability ([1]; first compound 0.04 µM) | relative viability ([1]; first compound 0.1265 µM) | relative viability ([1]; first compound 0.4 µM) | relative viability ([1]; first compound 1.265 µM) | relative viability ([1]; first compound 4 µM) | relative viability ([2]; first compound 0.04 µM) | relative viability ([2]; first compound 0.1265 µM) | relative viability ([2]; first compound 0.4 µM) | relative viability ([2]; first compound 1.265 µM) | relative viability ([2]; first compound 4 µM) | relative viability ([3]; first compound 0.04 µM) | relative viability ([3]; first compound 0.1265 µM) | relative viability ([3]; first compound 0.4 µM) | relative viability ([3]; first compound 1.265 µM) | relative viability ([3]; first compound 4 µM)
NCI-H2023 | 0.609 | 0.517 | 0.379 | 0.259 | 0.198 | 0.244 | 0.252 | 0.174 | 0.142 | 0.143 | 0.275 | 0.29 | 0.26 | 0.159 | 0.15
NCI-H2085 | 0.882 | 0.736 | 0.67 | 0.497 | 0.467 | 0.454 | 0.462 | 0.408 | 0.403 | 0.404 | 0.47 | 0.587 | 0.472 | 0.376 | 0.365
NCI-H2087 | 0.635 | 0.562 | 0.458 | 0.369 | 0.357 | 0.762 | 0.779 | 0.519 | 0.404 | 0.336 | 0.376 | 0.348 | 0.317 | 0.257 | 0.28
NCI-H2126 | 0.777 | 0.787 | 0.548 | 0.491 | 0.574 | 0.517 | 0.543 | 0.463 | 0.39 | 0.438 | 0.659 | 0.67 | 0.489 | 0.465 | 0.44
NCI-H2170 | 0.402 | 0.338 | 0.382 | 0.238 | 0.204 | 0.256 | 0.254 | 0.312 | 0.285 | 0.269 | 0.626 | 0.55 | 0.454 | 0.44 | 0.385
NCI-H2228 | 0.667 | 0.525 | 0.264 | 0.337 | 0.21 | 0.355 | 0.441 | 0.179 | 0.287 | 0.232 | 0.418 | 0.431 | 0.205 | 0.103 | 0.207
NCI-H2347 | 0.792 | 0.543 | 0.425 | 0.385 | 0.348 | 0.59 | 0.599 | 0.63 | 0.495 | 0.554 | 0.382 | 0.478 | 0.34 | 0.402 | 0.383
NCI-H2405 | 0.769 | 0.837 | 0.455 | 0.355 | 0.244 | 0.457 | 0.453 | 0.562 | 0.406 | 0.298 | 0.555 | 0.564 | 0.543 | 0.444 | 0.399
NCI-H3122 | 0.999 | 0.984 | 0.97 | 0.886 | 0.76 | 0.64 | 0.564 | 0.399 | 0.571 | 0.517 | 0.814 | 0.955 | 0.468 |  | 0.559
PC-3 [JPC-3] |  | 0.601 | 0.526 | 0.463 | 0.51 |  | 0.733 | 0.434 | 0.609 | 0.646 | 0.463 | 0.702 | 0.475 | 0.469 | 0.426
PC-14 | 0.51 | 0.556 | 0.231 | 0.162 | 0.166 | 0.0668 | 0.749 | 0.348 | 0.28 | 0.11 | 0.148 | 0.425 | 0.16 | 0.113 | 0.105
RERF-LC-KJ | 0.779 | 0.844 | 0.279 | 0.597 | 0.618 | 0.508 | 0.607 | 0.403 | 0.368 | 0.354 | 0.529 | 0.559 |  | 0.457 | 0.471
SK-LU-1 | 0.262 | 0.385 | 0.23 | 0.335 | 0.282 | 0.53 | 0.447 | 0.306 | 0.365 | 0.282 | 0.296 | 0.29 | 0.216 | 0.253 | 0.227
SK-MES-1 | 0.976 | 0.84 | 0.501 | 0.33 | 0.303 | 0.258 | 0.367 | 0.427 | 0.271 | 0.243 | 0.508 | 0.529 | 0.384 | 0.188 | 0.203
SW 1573 | 1.15 | 0.89 | 0.687 | 0.356 | 0.217 | 0.535 | 0.425 | 0.491 | 0.279 | 0.202 | 0.469 | 0.558 | 0.572 | 0.273 | 0.21
